Laboratory results published in patent US20050002876A1, “Oral care methods and products” (priority 2003, published 2005).

Test system: human umbilical vein endothelial cells (HUVEC)
Assay: Copper-induced IL-8 release from HUVEC (IL-8 ELISA)
Format: cell-based

[Cl][Cu][Cl] [CuCl2]
IL-8 secretion as compared to controls incubated with water (50 μM CuCl2, 24 hours): > 2 fold

NCCNCCNCCN [trientine, N,N′-bis(2-aminoethyl)-1,2-ethanediamine]
IL-8 secretion caused by CuCl2 (50 μM CuCl2 + 50, 100, 150 or 250 μM Syprine trientine hydrochloride, 24 hours, serum-free medium): significantly inhibited copper-induced endothelial cell IL-8 secretion
